How the values were obtained:
CDK9/CyclinT1 = biological target: T1, CDK9/CyclinT1 (Homo sapiens, UniProt P50750); assay: CDK9/CycT1 high ATP kinase assay (TR-FRET); assay type: biochemical; conditions: 2 mM ATP (high ATP); median; read-out: CDK9/CyclinT1, 2 mM ATP (high ATP) IC50 - [mol/l] (median)
T1 construct: Recombinant full-length His-tagged human CDK9 and CycT1; His-tag; purchased Life Technologies PV4131; host or cells: insect cells
Summary of the method: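 Full-length His-tagged human CDK9/CycT1 (insect cell) at ~0.5 µg/mL, preincubated with compound 15 min at 22 °C in Tris pH 8.0 buffer, then reacted 25 min with 2 mM ATP and 0.75 µM biotinylated peptide (final). Phospho-substrate detected by TR-FRET (anti-RB pSer807/811, Eu/XL665), 665/620 nm ratio normalised to no-inhibitor and no-enzyme controls.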

CDK12 = biological target: T2, CDK12 (Homo sapiens, UniProt Q9NYV4); assay: CDK12 nuclear protein level: immunofluorescence/high content analysis in CAL-120 cells; assay type: cell-based; conditions: for DC50: CAL-120 cells, 24 h, nuclear CDK12 staining intensity, median, read-out: CDK12 degradation IF DC50 - [mol/l] (median); for (IC50 CDK12 high ATP) to (Degradation DC50 CDK12) ratio: ratio of IC50 CDK12 hATP (2 mM ATP) to DC50 CDK12 (IF, CAL-120)
T2 construct: endogenous in cells; host or cells: CAL-120 human breast cancer cells (DSMZ ACC 459)
T2 sequence (Q9NYV4 whole entry): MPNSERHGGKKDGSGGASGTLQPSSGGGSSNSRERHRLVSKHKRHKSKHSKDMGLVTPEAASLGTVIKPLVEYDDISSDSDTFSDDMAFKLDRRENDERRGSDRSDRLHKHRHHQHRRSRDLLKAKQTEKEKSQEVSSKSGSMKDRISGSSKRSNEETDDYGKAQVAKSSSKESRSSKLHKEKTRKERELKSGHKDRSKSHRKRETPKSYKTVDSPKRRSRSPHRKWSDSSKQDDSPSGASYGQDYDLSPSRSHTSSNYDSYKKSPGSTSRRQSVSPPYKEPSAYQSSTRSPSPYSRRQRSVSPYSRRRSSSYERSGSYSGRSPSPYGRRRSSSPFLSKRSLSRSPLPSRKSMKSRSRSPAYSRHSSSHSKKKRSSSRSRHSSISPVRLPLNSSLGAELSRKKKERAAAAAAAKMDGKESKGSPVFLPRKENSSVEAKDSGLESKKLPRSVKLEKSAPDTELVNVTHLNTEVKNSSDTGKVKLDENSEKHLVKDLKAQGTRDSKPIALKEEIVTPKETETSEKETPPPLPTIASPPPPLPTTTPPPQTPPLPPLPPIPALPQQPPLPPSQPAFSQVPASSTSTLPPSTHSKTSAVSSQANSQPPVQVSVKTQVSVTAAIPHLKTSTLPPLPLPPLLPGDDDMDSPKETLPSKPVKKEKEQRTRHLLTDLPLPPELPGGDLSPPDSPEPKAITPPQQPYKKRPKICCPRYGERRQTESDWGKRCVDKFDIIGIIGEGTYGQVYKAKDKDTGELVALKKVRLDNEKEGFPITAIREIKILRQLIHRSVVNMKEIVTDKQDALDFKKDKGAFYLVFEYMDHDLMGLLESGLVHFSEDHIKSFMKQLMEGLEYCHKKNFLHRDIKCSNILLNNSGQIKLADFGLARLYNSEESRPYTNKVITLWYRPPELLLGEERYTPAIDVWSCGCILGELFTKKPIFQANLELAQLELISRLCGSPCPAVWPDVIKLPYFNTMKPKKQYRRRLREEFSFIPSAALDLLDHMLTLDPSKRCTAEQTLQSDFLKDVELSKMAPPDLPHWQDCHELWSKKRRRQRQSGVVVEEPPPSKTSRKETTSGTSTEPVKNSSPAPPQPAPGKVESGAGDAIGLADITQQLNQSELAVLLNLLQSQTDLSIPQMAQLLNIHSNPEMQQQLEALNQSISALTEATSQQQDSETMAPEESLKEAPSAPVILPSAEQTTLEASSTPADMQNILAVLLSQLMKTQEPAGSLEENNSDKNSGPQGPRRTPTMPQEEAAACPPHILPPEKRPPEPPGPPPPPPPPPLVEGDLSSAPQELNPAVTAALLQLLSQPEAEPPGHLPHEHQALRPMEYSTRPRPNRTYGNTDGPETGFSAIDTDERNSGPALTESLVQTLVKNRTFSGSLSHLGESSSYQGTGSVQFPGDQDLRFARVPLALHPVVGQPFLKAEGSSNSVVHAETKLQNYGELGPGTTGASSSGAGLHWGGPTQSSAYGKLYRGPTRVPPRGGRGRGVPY
T2 sequence (O75909 whole entry partner): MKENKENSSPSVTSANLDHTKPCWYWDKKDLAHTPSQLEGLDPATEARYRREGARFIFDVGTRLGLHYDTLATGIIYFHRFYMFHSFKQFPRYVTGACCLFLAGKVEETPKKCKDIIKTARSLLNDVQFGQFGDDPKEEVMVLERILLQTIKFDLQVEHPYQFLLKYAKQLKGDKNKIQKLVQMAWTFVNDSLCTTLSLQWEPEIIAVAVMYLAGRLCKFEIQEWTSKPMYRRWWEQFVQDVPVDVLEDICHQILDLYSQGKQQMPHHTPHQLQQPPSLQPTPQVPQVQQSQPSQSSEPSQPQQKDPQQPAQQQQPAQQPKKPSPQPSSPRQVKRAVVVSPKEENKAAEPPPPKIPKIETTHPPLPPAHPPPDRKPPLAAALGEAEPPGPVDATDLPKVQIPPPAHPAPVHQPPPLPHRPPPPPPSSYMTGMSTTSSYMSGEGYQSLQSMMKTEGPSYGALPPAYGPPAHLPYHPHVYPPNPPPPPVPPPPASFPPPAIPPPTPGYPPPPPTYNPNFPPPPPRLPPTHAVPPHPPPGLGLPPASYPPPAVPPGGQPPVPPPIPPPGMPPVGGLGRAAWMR
Summary of the method: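 Cells were exposed to compounds in dose-response for 24 h at 37 °C, then PFA-fixed, immunostained for CDK12 and counterstained with Hoechst before confocal imaging. Nuclear CDK12 intensity was normalized to DMSO and control. DC50 is the concentration giving 50% reduction of nuclear staining.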

CYCLIN K = biological target: T3, CYCLIN K (Homo sapiens, UniProt O75909); assay: CYCLIN K nuclear protein level: immunofluorescence/high content analysis in CAL-120 cells; assay type: cell-based; conditions: 24 h, nuclear CCNK staining intensity, median, read-out: CYCLIN K degradation IF, DC50- [mol/l] (median)
T3 construct: endogenous in cells; host or cells: CAL-120 human breast cancer cells (DSMZ ACC 459)
T3 sequence (O75909 whole entry): as the sequence (O75909 whole entry partner) above
T3 sequence (Q9NYV4 whole entry partner): as the sequence (Q9NYV4 whole entry) above
Summary of the method: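 CAL-120 cells were incubated with compound in dose-response for 24 h at 37° C, then fixed, immunostained for CYCLIN K and Hoechst-counterstained. Confocal imaging gave nuclear intensity. DC50 is the concentration giving 50% reduction of nuclear CCNK staining relative to DMSO and reference controls.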

T1 sequence (P50750 whole entry): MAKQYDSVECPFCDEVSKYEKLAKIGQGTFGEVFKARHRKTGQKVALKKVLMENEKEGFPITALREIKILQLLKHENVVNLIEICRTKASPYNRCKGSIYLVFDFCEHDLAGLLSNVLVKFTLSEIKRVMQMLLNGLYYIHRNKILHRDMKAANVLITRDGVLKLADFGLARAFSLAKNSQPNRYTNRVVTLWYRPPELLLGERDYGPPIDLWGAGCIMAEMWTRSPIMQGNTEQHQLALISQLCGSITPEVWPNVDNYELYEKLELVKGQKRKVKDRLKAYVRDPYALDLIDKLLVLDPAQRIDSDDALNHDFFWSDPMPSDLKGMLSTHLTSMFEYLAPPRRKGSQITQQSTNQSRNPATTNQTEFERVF
T1 sequence (O60563 whole entry partner): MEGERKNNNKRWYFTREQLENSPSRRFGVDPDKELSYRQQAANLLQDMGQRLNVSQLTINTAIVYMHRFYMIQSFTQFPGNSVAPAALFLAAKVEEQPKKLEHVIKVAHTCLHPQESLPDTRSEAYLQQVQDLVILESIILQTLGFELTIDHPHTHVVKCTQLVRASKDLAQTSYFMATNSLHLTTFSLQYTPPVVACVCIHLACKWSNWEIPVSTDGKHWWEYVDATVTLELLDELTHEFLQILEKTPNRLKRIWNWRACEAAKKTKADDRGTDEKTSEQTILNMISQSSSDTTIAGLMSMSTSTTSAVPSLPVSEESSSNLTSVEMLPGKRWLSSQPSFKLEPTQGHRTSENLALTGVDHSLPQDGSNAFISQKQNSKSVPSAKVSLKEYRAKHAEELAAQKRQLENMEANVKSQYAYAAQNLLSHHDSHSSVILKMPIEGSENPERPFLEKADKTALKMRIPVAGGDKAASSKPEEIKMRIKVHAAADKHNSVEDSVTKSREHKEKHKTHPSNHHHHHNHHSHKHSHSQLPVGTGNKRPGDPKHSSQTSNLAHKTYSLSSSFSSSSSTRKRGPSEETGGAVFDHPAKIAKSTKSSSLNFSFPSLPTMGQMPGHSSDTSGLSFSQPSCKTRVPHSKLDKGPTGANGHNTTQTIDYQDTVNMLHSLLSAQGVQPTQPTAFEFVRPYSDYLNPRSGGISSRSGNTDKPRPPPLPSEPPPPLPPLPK

What does the source list for COc1cccc2[nH]c(CNc3nn(C4CCN(C)CC4)c4nc(C5CC5)cnc34)nc12 [Example 2, 6-cyclopropyl-N-[(4-methoxy-1H-benzimidazol-2-yl)methyl]-1-(1-methylpiperidin-4-yl)-1H-pyrazolo[3,4-b]pyrazin-3-amine]?
IC50 (CDK9/CyclinT1): > 20000 nM; DC50 (CDK12): 6.09 nM; (IC50 CDK12 high ATP) to (Degradation DC50 CDK12) ratio (CDK12): >3284; DC50 (CYCLIN K): 0.704 nM

Which results are given for OC1(Cn2nc(NCc3nc4ccccc4[nH]3)c3ncc(C4CC4)nc32)CCC1 [Example 72, 1-[(3-{[(1H-benzimidazol-2-yl)methyl]amino}-6-cyclopropyl-1H-pyrazolo[3,4-b]pyrazin-1-yl)methyl]cyclobutan-1-ol]?
IC50 (CDK9/CyclinT1): > 20000 nM; DC50 (CDK12): 18.7 nM; (IC50 CDK12 high ATP) to (Degradation DC50 CDK12) ratio (CDK12): >536; DC50 (CYCLIN K): 23.4 nM

For Cc1cnc2c(NCc3nc4ccccc4[nH]3)nn(C3CCN(C)CC3)c2n1 [Example 77, N-[(1H-benzimidazol-2-yl)methyl]-6-methyl-1-(1-methylpiperidin-4-yl)-1H-pyrazolo[3,4-b]pyrazin-3-amine], which IC50 (CDK9/CyclinT1) is on record?
The IC50 was over 20000 nM.

And the DC50 (CDK12)?
Its DC50 is 127 nM.

What about the “(IC50 CDK12 high ATP) to (Degradation DC50 CDK12) ratio” value (CDK12) of the same compound?
Its value is over 133.

What about the DC50 (CYCLIN K) of the same compound?
The DC50 was 118 nM.

Cc1cccc2[nH]c(CNc3nn(C4CCN(C)CC4)c4nc(C5CC5)cnc34)nc12 [Example 8, 6-cyclopropyl-N-[(4-methyl-1H-benzimidazol-2-yl)methyl]-1-(1-methylpiperidin-4-yl)-1H-pyrazolo[3,4-b]pyrazin-3-amine] was tested. Which IC50 (CDK9/CyclinT1) did it give?
Its IC50 is over 20000 nM.

What about the DC50 (CDK12) of the same compound?
The DC50 was 8.53 nM.

What about the “(IC50 CDK12 high ATP) to (Degradation DC50 CDK12) ratio” value (CDK12) of the same compound?
The value was over 2344.

What about the DC50 (CYCLIN K) of the same compound?
Its DC50 is 6.22 nM.

For CN1CCC(n2nc(NCc3nc4c(F)cccc4[nH]3)c3ncc(C4CC4)nc32)CC1 [Example 3, 6-cyclopropyl-N-[(4-fluoro-1H-benzimidazol-2-yl)methyl]-1-(1-methylpiperidin-4-yl)-1H-pyrazolo[3,4-b]pyrazin-3-amine], which IC50 (CDK9/CyclinT1) is on record?
Its IC50 is over 20000 nM.

What about the DC50 (CDK12) of the same compound?
The DC50 was 1.92 nM.

And the DC50 (CYCLIN K)?
The DC50 was 1.15 nM.

How did the IC50 (CDK9/CyclinT1) turn out when CC(C)(O)Cn1nc(NCc2nc3ccccc3[nH]2)c2ncc(C3CC3)nc21 [Example 69, 1-(3-{[(1H-benzimidazol-2-yl)methyl]amino}-6-cyclopropyl-1H-pyrazolo[3,4-b]pyrazin-1-yl)-2-methylpropan-2-ol] was run?
Its IC50 is over 20000 nM.

And the DC50 (CDK12)?
Its DC50 is 99.4 nM.

What about the “(IC50 CDK12 high ATP) to (Degradation DC50 CDK12) ratio” value (CDK12) of the same compound?
The value was over 101.

What about the DC50 (CYCLIN K) of the same compound?
The DC50 was 34.1 nM.

For CN1CCC(n2nc(NCc3nc4cc(Cl)c(Cl)cc4[nH]3)c3ncc(C4CC4)nc32)CC1 [Example 19, 6-cyclopropyl-N-[(5,6-dichloro-1H-benzimidazol-2-yl)methyl]-1-(1-methylpiperidin-4-yl)-1H-pyrazolo[3,4-b]pyrazin-3-amine], which IC50 (CDK9/CyclinT1) is on record?
Its IC50 is over 20000 nM.

What about the DC50 (CDK12) of the same compound?
The DC50 was 4.66 nM.

What about the “(IC50 CDK12 high ATP) to (Degradation DC50 CDK12) ratio” value (CDK12) of the same compound?
Its value is over 4294.

And the DC50 (CYCLIN K)?
The DC50 was 0.339 nM.

What does the source list for COc1cccc2[nH]c(CNc3nn(C4CCOCC4)c4nc(C5CC5)cnc34)nc12 [Example 24, 6-cyclopropyl-N-[(4-methoxy-1H-benzimidazol-2-yl)methyl]-1-(oxan-4-yl)-1H-pyrazolo[3,4-b]pyrazin-3-amine]?
IC50 (CDK9/CyclinT1): > 20000 nM; DC50 (CDK12): 12 nM; (IC50 CDK12 high ATP) to (Degradation DC50 CDK12) ratio (CDK12): 1614; DC50 (CYCLIN K): 1.22 nM

For COCCC(C)n1nc(NCc2nc3ccccc3[nH]2)c2ncc(C3CC3)nc21 (single isomer, unassigned; (+)) [Example 59, (+)-N-[(1H-benzimidazol-2-yl)methyl]-6-cyclopropyl-1-[4-methoxybutan-2-yl]-1H-pyrazolo[3,4-b]pyrazin-3-amine], which IC50 (CDK9/CyclinT1) is on record?
The IC50 was over 20000 nM.

And the DC50 (CDK12)?
The DC50 was 32.4 nM.

And the “(IC50 CDK12 high ATP) to (Degradation DC50 CDK12) ratio” value (CDK12)?
The value was over 618.

And the DC50 (CYCLIN K)?
The DC50 was 38.6 nM.

c1ccc2[nH]c(CNc3nn(C4CCCC4)c4nc(C5CC5)cnc34)nc2c1 [Example 39, N-[(1H-benzimidazol-2-yl)methyl]-1-cyclopentyl-6-cyclopropyl-1H-pyrazolo[3,4-b]pyrazin-3-amine] was tested. Which IC50 (CDK9/CyclinT1) did it give?
The IC50 was over 20000 nM.

And the DC50 (CDK12)?
The DC50 was 38.2 nM.

And the “(IC50 CDK12 high ATP) to (Degradation DC50 CDK12) ratio” value (CDK12)?
The value was over 534.

What about the DC50 (CYCLIN K) of the same compound?
The DC50 was 38.7 nM.

What does the source list for COC(C)(C)CCn1nc(NCc2nc3ccccc3[nH]2)c2ncc(C3CC3)nc21 [Example 67, N-[(1H-benzimidazol-2-yl)methyl]-6-cyclopropyl-1-(3-methoxy-3-methylbutyl)-1H-pyrazolo[3,4-b]pyrazin-3-amine]?
IC50 (CDK9/CyclinT1): > 20000 nM; DC50 (CDK12): 21 nM; (IC50 CDK12 high ATP) to (Degradation DC50 CDK12) ratio (CDK12): >937; DC50 (CYCLIN K): 15.6 nM

For CC1COCCC1n1nc(NCc2nc3ccccc3[nH]2)c2ncc(C3CC3)nc21 (racemic) [Example 42, (±)-cis/trans-N-[(1H-benzimidazol-2-yl)methyl]-6-cyclopropyl-1-(3-methyloxan-4-yl)-1H-pyrazolo[3,4-b]pyrazin-3-amine], which IC50 (CDK9/CyclinT1) is on record?
The IC50 was over 20000 nM.

What about the DC50 (CDK12) of the same compound?
The DC50 was 11.1 nM.

What about the “(IC50 CDK12 high ATP) to (Degradation DC50 CDK12) ratio” value (CDK12) of the same compound?
Its value is over 2322.

And the DC50 (CYCLIN K)?
The DC50 was 17.2 nM.
